Experimental data as given in US11702442B2, “Cyclic dinucleotide compounds as sting agonists” (The Regents of the University of California, priority 2019, dated 2023).
Entries after “also recorded” stand apart in the source; their conditions may differ.

Experiments:
DncV = DncV (Vibrio cholerae serotype O1, UniProt Q9KVG7); conditions: pseudo-second order simulation, FL Model 2
Procedure: The bacterial enzyme DncV was thus incubated with either GTP, ^thGTP, ^tzGTP or mixtures thereof under the same conditions as the HPLC-monitored reactions. Aliquots were treated with calf intestinal alkaline phosphatase (CIAP) at designated times, and emission spectra were taken after appropriate dilution.
Unlike integrated chromatographic analyses, which can separately account for all individual species present, the observed fluorescence signal reflects the sum of all emissive species. To facilitate quantitative analyses of fluorescence data, a conversion factor (a) was introduced to the simulation of the fluorescence-monitored reaction kinetics. This factor bridges the integrated fluorescent spectrum and the concentration of a given chromophore at a given set of conditions and can be calculated from the integrated emission spectrum (FLint) of a given chromophore with known concentration ([C]) using Equation (5). […] To compare the fluorescence- and HPLC-monitored reaction kinetics, Equation (6) was used to correlate the recorded fluorescence spectrum with the concentrations of different species in the reaction mixture. As a first attempt, the k values extracted from the HPLC analysis were used to fit the fluorescence data (referred to as FL Model 1). […]

STING pathway = assay: Type-I IFN production in THP-1 cells detected with HEK-Blue IFN α/β reporter cells; type: cell-based, human; conditions: 5 μM CDN, 4 h incubation, compared with c-di-GMP
Procedure: THP-1 cells were seeded at a density of 100000 cells/well in a 96-well cell culture plate and differentiated with 25 nM of PMA for approximately 20 h prior to treatment with CDNs. Cells were transfected with 5 μM of CDNs in a permeabilization buffer containing 5 μg/mL of digitonin, then washed and incubated in RPMI medium with 2% FBS at 37° C. for 4 h. 50 μL of cell culture supernatant per well was transferred to 150 μL of HEK-Blue IFN α/β reporter cells seeded at 50000 cells/well in a 96-well cell culture plate and incubated at 37° C. overnight. The reporter cells were spun down the next day, and 50 μL of cell culture supernatant per well was transferred to a 96-well plate and added with 150 μL of QUANTI-Blue™ SEAP detection medium (InvivoGen). The samples were then incubated at 37° C. for 1 h 20 min before absorption was measured at 640 nm. The absorption signal of each sample was normalized to untreated samples. Two independent assays were performed in duplicate or triplicate. Error bars indicate SD.
To preliminarily determine whether the synthetic c-di-GMP analogues could activate the IFN response in eukaryotic cells, THP-1 cells were treated with 5 μM of c-di-GMP, c-GthGMP and c-di-thGMP.
Detecting type-I IFN production with reporter cells. […] The samples were then incubated at 37° C. for 80 min before absorption was measured at 640 nm with an EnSpire plate reader (PerkinElmer). […]

Chain of DncV (Q9KVG7 whole entry): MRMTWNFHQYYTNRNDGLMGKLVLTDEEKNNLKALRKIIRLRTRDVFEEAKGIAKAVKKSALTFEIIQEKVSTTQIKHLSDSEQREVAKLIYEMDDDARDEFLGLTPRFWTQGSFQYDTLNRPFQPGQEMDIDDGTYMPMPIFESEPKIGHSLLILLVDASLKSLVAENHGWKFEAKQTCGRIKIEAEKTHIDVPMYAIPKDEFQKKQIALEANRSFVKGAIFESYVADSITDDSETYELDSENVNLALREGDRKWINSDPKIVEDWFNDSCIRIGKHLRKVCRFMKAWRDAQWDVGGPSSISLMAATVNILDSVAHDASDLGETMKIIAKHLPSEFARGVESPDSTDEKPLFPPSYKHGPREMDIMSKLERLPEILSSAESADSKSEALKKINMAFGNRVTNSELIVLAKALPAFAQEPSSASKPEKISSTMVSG

SMILES | kapp (apparent kinetics rate constant) (DncV) [M⁻¹ s⁻¹] | type-I IFN induction (STING pathway)
Nc1nc2c([C@@H]3O[C@@H]4COP(=O)(O)O[C@H]5[C@@H](O)[C@H](c6scc7c(=O)[nH]c(N)nc67)O[C@@H]5COP(=O)(O)O[C@H]4[C@H]3O)scc2c(=O)[nH]1 [c-di-^thGMP] | 0.53 ± 0.05 | no activity
Nc1nc2c([C@@H]3O[C@@H]4COP(=O)(O)O[C@H]5[C@@H](O)[C@H](n6cnc7c(=O)[nH]c(N)nc76)O[C@@H]5COP(=O)(O)O[C@H]4[C@H]3O)scc2c(=O)[nH]1 [c-G^thGMP] |  | comparable efficiency to cdi-GMP; also recorded: comparable potency to c-di-GMP
Nc1nc2c([C@@H]3O[C@@H]4COP(=O)(O)O[C@H]5[C@@H](O)[C@H](c6snc7c(=O)[nH]c(N)nc67)O[C@@H]5COP(=O)(O)O[C@H]4[C@H]3O)snc2c(=O)[nH]1 [c-di-^tzGMP] | 1.57 ± 0.15 | 
